# Measured values: PMC9995905, “Characteristics of antimicrobial peptide OaBac5mini and its bactericidal mechanism against Escherichia coli” (Frontiers in Veterinary Science, 2023)
# “Also recorded” adds a separate entry of the source. Where no end group is shown, it is not given here.
# Legend:
# E. coli ATCC 25922 [1] = assay: microbe, parasite or virus in culture; conditions: ATCC 25922
# Procedure: (§1) MICs of OaBac5mini, amoxicillin, kanamycin, florfenicol and tetracycline were determined using the two-fold broth microdilution method according to the Clinical and Laboratory Standards Institute (CLSI) guidance ([21]). MIC values of the tested antibacterial agents were determined on three independent occasions. Escherichia coli ATCC 25922 was used as the quality control in all the susceptibility tests.
# S. aureus ATCC 25923 = assay: microbe, parasite or virus in culture; conditions: ATCC 25923
# Procedure: as §1
# E. coli ATCC 25922 ΔsbmA = conditions: two-fold broth microdilution, CLSI; three independent occasions; sbmA deletion mutant
# Procedure: The method described by Datsenko and Wanner was used for chromosomal gene deletion ([20]). […] The PCR fragment (1,567 bp) was purified, digested with DpnI, repurified and transferred into E. coli ATCC 25922 by electroporation, in which the Red recombinase expression plasmid pKD46 was previously transformed and induced by L-arabinose. Transformants were selected on Luria-Bertani (LB) agar containing 50 μg/ml of kanamycin at 37°C. The inserted sequence was amplified from the kanamycin-resistant strains by using the primers SBMF: 5′-[…]-3′ and SBMR: 5′-[…]-3′ which is located outside of inactivated gene. The length of the PCR product of sbmA using the primers set SBMF and SBMR in E. coli ATCC 25922 is 1,404 bp. When sbmA is successfully inactivated, the PCR product (2,198 bp) was amplified and sequenced for the verification of the gene deletion.
# as §1
# E. coli 17 = assay: microbe, parasite or virus in culture; conditions: 17
# Description: (§2) The strains of E. coli ATCC 25922 and S. aureus ATCC 25923 were purchased from the American Type Culture Collection (ATCC, Manassas, VA, United States). The strains of E. coli W13, E. coli IF4, E. coli 2, and E. coli 17 were individually isolated from the livers of diseased chickens infected by E. coli. The strains of S. aureus B5, S. aureus B9, S. aureus B54, and S. aureus B63 were individually isolated from the milk of cows with mastitis. These clinical isolates were all identified by the VITEK-32 system (bioMérieux, France) and PCR amplification sequencing.
# as §1
# E. coli 2 = assay: microbe, parasite or virus in culture; conditions: 2
# Description: as §2, §1
# E. coli IF4 = assay: microbe, parasite or virus in culture; conditions: IF4
# Description: as §2, §1
# E. coli W13 = assay: microbe, parasite or virus in culture; conditions: W13
# Description: as §2, §1
# S. aureus B54 = assay: microbe, parasite or virus in culture; conditions: B54
# Description: as §2, §1
# S. aureus B5 = assay: microbe, parasite or virus in culture; conditions: B5
# Description: as §2, §1
# S. aureus B63 = assay: microbe, parasite or virus in culture; conditions: B63
# Description: as §2, §1
# S. aureus B9 = assay: microbe, parasite or virus in culture; conditions: B9
# Description: as §2, §1
# E. coli ATCC 25922 [2] = assay: Sensitivity to pH, temperature and repeated freeze-thawing (inhibition zone assay); format: physicochemical, Escherichia coli; conditions: 50 μg/ml, inhibition zone assay against E. coli ATCC 25922, repeated three times
# Procedure: The sensitivities of OaBac5mini to different pH, temperature, digestive enzymes, and repeated freeze-thawing conditions were determined using the inhibition zone assay as previously described ([23]). For pH sensitivity, OaBac5mini was diluted with each solution whose pH was individually adjusted to 2, 3, 4, 5, 6, 7, 8, 9, 10, 11 with HCl or NaOH, and incubated for 2 h, followed by adjusting the pH to 7 to end the reaction. For temperature sensitivity, the diluted peptide was incubated at 30, 40, 50, 60, 70, 80, 90, and 100°C for 30 min. To determine the digestive enzymes sensitivity, OaBac5mini was incubated with 100 μg/ml pepsin (in pH 2 sterile water, sigma, USA), 5–100 μg/ml trypsin (in pH 6.8 KH2PO4 buffer, sigma, USA) and 100 μg/ml protease K (Solarbio, China) at 37°C for 3 h, respectively. To end the reaction after incubation, the pepsin buffer was adjusted to pH 8, the trypsin solution and protease K solution were incubated at 95°C for 10 min. For repeated freeze-thawing sensitivity, OaBac5mini was frozen and then thawed at room temperature 0–12 times. All the final concentrations of OaBac5mini in sensitivity tests were 50 μg/ml. All experiments were repeated three times.
# pepsin = biological target: T1, pepsin (Sus scrofa, UniProt P00791); assay: Digestive enzyme sensitivity (inhibition zone assay); format: in vitro ADME; conditions: 100 μg/ml pepsin in pH 2 sterile water, 37°C, 3 h; 50 μg/ml peptide; inhibition zone assay against E. coli ATCC 25922; repeated three times
# T1 construct: purchased sigma, USA
# T1 sequence (P00791 60-385): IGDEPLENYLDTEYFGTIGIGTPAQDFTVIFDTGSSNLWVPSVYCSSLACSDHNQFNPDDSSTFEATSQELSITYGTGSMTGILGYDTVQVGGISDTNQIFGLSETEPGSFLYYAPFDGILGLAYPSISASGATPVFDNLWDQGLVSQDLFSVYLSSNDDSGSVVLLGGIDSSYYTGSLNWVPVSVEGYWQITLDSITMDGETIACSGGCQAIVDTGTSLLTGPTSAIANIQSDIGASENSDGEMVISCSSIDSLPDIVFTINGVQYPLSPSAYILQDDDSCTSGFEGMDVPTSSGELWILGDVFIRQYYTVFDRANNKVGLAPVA
# Description: All experiments were repeated three times.
# IPEC-J2 cells = format: cell-based, porcine
# Procedure: The cells were maintained in CO2 incubator (Galaxy R, RS Biotech, Scotland) with 5% CO2 at 37°C. Real time cellular analysis (RTCA) was used to evaluate the proliferation and viability of IPEC-J2 cells. […] Real time cellular analysis was monitored using xCELLigence RTCA DP system (xCELLigence, ACEA biosciences, USA) for 100 h at 15 min intervals. The cell index was normalized by RTCA software 2.0 (xCELLigence, ACEA biosciences, USA).
# E. coli ATCC 25922 [3] = assay: Permeability of the outer membrane (NPN uptake); format: cell-based, Escherichia coli; conditions: 25, 50, 100 and 200 μg/ml; 10 μM NPN; 60 min; P < 0.01; n = 3
# Procedure: The NPN uptake assay was conducted following the instructions of […] and […] ([25]) with minor modifications. In brief, E. coli. […] Fluorescence units were monitored immediately using INFINITE 200 PRO (Infinite® 2000, TECAN, Austria) at the excitation wavelength of 350 nm and emission wavelength of 420 nm for 100 min at 5 min intervals. Experiments were performed in biological triplicate.
# Gram-negative bacteria = conditions: cited from earlier work
# Description: (§3) Antimicrobial peptides (AMPs) are small molecular peptides in living organisms and serve as natural barriers against the invasion of pathogenic microorganisms ([5]). They are often referred to as cationic host defense peptides (HDPs) or cationic antimicrobial peptides (CAMPs) ([6]). Cathelicidins are one of the best characterized AMP families. Each cathelicidin includes an N-terminal signal domain, a cathelin-like domain, and an antimicrobial C-terminal domain ([7]). Among them, the proline-rich antibacterial peptides (PrAMPs) have been attracting the close attention of researchers due to thei ...
# [4] = system: Gram-positive bacteria and C. albicans; conditions: cited from earlier work
# Description: as §3
sequence,measurement,setting,value
RFRPPIRRPPIRPPFRPPFRPPVR [OaBac5mini],MIC against E. coli ATCC 25922,E. coli ATCC 25922 [1],25 µg/mL
same,MIC against S. aureus ATCC 25923,S. aureus ATCC 25923,>250 µg/mL
same,MIC against E. coli ATCC 25922 ΔsbmA,E. coli ATCC 25922 ΔsbmA,100 µg/mL
same,MIC against E. coli 17,E. coli 17,3.26 µg/mL
same,MIC against E. coli 2,E. coli 2,1.95 µg/mL
same,MIC against E. coli IF4,E. coli IF4,2.60 µg/mL
same,MIC against E. coli W13,E. coli W13,3.26 µg/mL
same,MIC against S. aureus B54,S. aureus B54,250 µg/mL
same,MIC against S. aureus B5,S. aureus B5,>250 µg/mL
same,MIC against S. aureus B63,S. aureus B63,208.33 µg/mL
same,MIC against S. aureus B9,S. aureus B9,250 µg/mL
same,Antibacterial activity after treatment at high temperature,E. coli ATCC 25922 [2]; 30-100°C for 30 min,stable antibacterial activity
same,Antibacterial activity after repeated freeze-thawing,E. coli ATCC 25922 [2]; frozen and thawed at room temperature 0-12 times,stable antibacterial activity
same,Antibacterial activity after treatment at different pH,"E. coli ATCC 25922 [2]; pH 2-11 (HCl or NaOH), 2 h, then adjusted to pH 7",stable antibacterial activity; also recorded: not significantly affected
same,Antibacterial activity after treatment with pepsin,pepsin,stable antibacterial activity; also recorded: not significantly affected
same,Cell indexes of IPEC-J2 cells at 400 μg/ml compared to the control group,IPEC-J2 cells,didn't change significantly
same,Cell indexes of treated IPEC-J2 cells compared with the control group,IPEC-J2 cells,significant increase
same,Average fluorescence intensity of NPN (outer membrane permeability) compared with the negative control,E. coli ATCC 25922 [3],significantly increased
same,MICs against Gram-negative bacteria,Gram-negative bacteria,0.125 to 8 µg/mL
same,MICs against Gram-positive bacteria and C. albicans,[4],16 to 64 µg/mL
